Experimental data as given in publication PMC10791743, “Selective CK1α degraders exert antiproliferative activity against a broad range of human cancer cell lines” (Nature Communications, 2024).
Where “and” joins values, the source holds several entries; their conditions need not be identical. Identical values can stand only once.

Columns and labels:
PER117 cells = experiment: CTG viability, PER117; assay type: cell-based, human; settings: for IC50: PER117 cells, replicate values
Protocol: After establishing the potency and selectivity of our lead CK1α degraders, we investigated their effect on a panel of AML and ALL cell lines (Fig. 3a).
The primary screen was performed in 384-well format using the CellTiter Glo (CTG) luminescent cell viability assay (Promega) as previously described. 3630 compounds from the St. Jude proprietary molecular glue library were screened against 9 human cancer cell lines (HD-MB03, MB004, MB002, MHH-CALL4, MOLM-13, TF-1, HEL, OCI-AML3, AML193). Each cell line was cultured in the complete medium recommended by the vendor and seeded in Corning 8804 BC white 384-well assay plates at densities of 1000, 1000, 1500, 7500, 1250, 156, 625, 1250, 1250 cells per well for HD-MB03, MB004, MB002, MHH-CALL4, MOLM-13, TF-1, HEL, OCI-AML, AML193, respectively. After overnight incubation at 37 °C in a humidified 5% CO2 incubator, cells were treated with compounds in dose–response format using a Pintool on a Biomek FX^P Laboratory Automation Workstation (Beckman Coulter). After 72 h of incubation, cell proliferation was assessed using a CellTiter-Glo (CTG) luminescent cell viability assay (Promega) according to the manufacturer’s instructions. Luminescence signal was measured using an EnVision plate reader (PerkinElmer).
HD-MB03 cell line was obtained from Drs. Milde, Witt and Deubzer[52]. HD-MB03 and MB004 cells were grown in a neurobasal medium supplemented with glutamine, streptomycin, penicillin, B27, EGF, bFGF, and heparin as previously described. MB002 and MB004 cells were obtained from Dr Yoon-Jae Cho[54]. MB002 cells were cultured in 80% neurobasal medium supplemented with glutamine, streptomycin, penicillin, B27, and 20% conditioned media from previous passages; EGF, bFGF, and heparin were also added to the medium. MHH-CALL4, NALM-16, MHH-CALL-2 cells were obtained from the German Collection of Microorganisms and Cell Cultures GmbH (DSMZ, Germany). PER-117 cells were obtained from Telethon Kids Institute (Perth, Australia). The cells were cultured in RPMI1640 medium supplemented with 10% FBS (Hyclone), Penicillin/Streptomycin (100 units/mL), and Glutamine (100 µM) except for MHH-CALL-2 cells where 20% FBS were used. MOLM-13 cells were obtained from DSMZ (ACC 554) and cultured in RPMI-1640 media (Gibco) supplemented with 20% FBS (R&D Systems) and 100 U/ml penicillin-streptomycin (Gibco). HNT-34 cells were purchased from DSMZ (ACC 600) and cultured in RPMI-1640 media supplemented with 20% FBS and 100 U/ml penicillin-streptomycin. Kasumi-3 cells were purchased from ATCC (CRL-2725) and cultured in RPMI-1640 media supplemented with 20% FBS and 100 U/ml penicillin-streptomycin. UCSD-AML1 cells were purchased from DSMZ (ACC 691) and cultured in RPMI-1640 media supplemented with 20% FBS, 100 U/ml penicillin–streptomycin, and 10 ng/ml human GM-CSF (PeproTech). […] OCI-AML3 cells were purchased from DSMZ (ACC 690) and cultured in Alpha-MEM media (Invitrogen) supplemented with 20% FBS and 100 U/ml penicillin–streptomycin. HEL cells were obtained from Dr. Charles Mullighan and cultured in RPMI-1640 media supplemented with 10% FBS and 100 U/ml penicillin-streptomycin. AML193 cells were purchased from DSMZ (ACC 549) and cultured in IMDM supplemented with 5% FBS, 100 U/ml penicillin–streptomycin, Insulin–Transferrin–Selenium (ITS-G, Gibco), and 5 ng/ml human GM-CSF. Cell identity was confirmed by STR profiling using PowerPlex® Fusion System (Promega).

[1] = target: T1, CK1α-CRBN ternary complex (Homo sapiens, UniProt P48729+Q96SW2); experiment: Live cell CK1α-CRBN ternary complex NanoBRET assay; assay type: cell-based
T1 construct: engineered by CRISPR/Cas9 to express endogenous CK1α (HEK293 cells) or IKZF1 (Jurkat cells) with a HiBiT tag; CS3023104 (cells)
Protocol: CSNK1A1CK1α-HiBiT HEK293 LgBiT stable cells weretransfected with a HaloTag-CRBN vector (Promega, Cat. #N269A) using Fugene HD (Promega, Cat. #E2311). […] Plates were incubated overnight at 37 °C with 5% CO2. On day 3, a dose–response curve was generated by performing 3-fold dilutions of each compound including a DMSO-only control in OptiMEM I Reduced Serum Medium, no phenol red supplemented with 4% FBS. Cells were treated with MG132 (Selleckchem, Cat. #S2619) for 30 min before being treated with the dilution series of compounds. Plates were incubated for 2 h at 37 °C with 5% CO2. After 2 h, plates were read using NanoBRET Nano-Glo substrate (Promega #N1573) on a GloMax Discover following the manufacturer’s instructions. No ligand controls were subtracted from each sample and normalized to the no compound DMSO control to obtain Fractional BRET values. EC50 values were calculated for each compound curve.

T1 sequence (Q96SW2 whole entry): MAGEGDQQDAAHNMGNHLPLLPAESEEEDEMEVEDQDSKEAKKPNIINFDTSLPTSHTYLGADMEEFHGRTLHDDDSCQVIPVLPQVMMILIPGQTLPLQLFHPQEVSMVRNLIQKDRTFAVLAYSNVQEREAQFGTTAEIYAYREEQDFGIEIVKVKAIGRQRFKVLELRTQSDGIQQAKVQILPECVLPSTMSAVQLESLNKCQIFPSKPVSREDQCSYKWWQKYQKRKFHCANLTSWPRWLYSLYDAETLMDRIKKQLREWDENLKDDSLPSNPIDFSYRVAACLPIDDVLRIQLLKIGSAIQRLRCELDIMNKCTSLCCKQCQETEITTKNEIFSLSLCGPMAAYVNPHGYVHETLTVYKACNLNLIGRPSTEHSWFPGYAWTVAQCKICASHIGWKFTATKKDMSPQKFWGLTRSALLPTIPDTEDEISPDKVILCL
T1 sequence (P48729 whole entry): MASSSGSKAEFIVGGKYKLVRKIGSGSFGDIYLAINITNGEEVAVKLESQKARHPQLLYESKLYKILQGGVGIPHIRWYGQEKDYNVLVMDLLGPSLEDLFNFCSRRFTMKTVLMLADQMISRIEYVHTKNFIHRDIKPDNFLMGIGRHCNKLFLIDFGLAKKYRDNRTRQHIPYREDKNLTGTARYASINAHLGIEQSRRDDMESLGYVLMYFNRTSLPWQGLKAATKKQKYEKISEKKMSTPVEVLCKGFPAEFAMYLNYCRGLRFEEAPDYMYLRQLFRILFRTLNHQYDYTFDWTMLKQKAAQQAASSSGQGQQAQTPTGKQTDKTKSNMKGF
T1 sequence (Q16531 whole entry partner): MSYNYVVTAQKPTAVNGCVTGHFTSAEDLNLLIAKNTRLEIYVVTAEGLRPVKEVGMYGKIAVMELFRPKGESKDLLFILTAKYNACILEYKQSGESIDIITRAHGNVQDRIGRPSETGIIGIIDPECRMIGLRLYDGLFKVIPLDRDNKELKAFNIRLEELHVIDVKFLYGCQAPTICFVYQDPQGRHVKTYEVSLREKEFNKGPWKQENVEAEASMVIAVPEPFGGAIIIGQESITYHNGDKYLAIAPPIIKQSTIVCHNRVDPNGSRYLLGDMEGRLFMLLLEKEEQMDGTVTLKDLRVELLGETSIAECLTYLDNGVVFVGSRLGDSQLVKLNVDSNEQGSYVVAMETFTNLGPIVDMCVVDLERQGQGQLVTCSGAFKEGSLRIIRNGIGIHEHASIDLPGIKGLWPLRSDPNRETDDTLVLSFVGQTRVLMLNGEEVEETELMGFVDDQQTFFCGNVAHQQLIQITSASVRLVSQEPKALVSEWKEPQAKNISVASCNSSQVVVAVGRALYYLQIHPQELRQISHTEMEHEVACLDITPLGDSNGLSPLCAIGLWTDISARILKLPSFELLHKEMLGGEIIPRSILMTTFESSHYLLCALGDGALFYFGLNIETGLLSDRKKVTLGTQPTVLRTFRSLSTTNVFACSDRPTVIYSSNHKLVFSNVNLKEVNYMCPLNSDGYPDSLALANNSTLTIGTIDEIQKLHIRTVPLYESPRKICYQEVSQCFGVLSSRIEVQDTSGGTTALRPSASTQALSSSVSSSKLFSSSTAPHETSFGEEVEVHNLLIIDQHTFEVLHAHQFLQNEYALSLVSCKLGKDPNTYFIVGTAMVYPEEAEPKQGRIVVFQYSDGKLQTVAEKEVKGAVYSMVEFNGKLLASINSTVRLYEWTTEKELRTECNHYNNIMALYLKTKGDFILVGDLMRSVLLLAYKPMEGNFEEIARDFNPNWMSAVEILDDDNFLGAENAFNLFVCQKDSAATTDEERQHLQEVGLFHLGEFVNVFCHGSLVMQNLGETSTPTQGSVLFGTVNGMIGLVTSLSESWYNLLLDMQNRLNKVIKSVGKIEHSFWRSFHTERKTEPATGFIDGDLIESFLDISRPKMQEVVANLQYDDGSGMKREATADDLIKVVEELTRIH

Structure (SMILES) | IC50 (PER117 cells; Homo sapiens) | IC50 (PER117 cells) | Activity against PER117 cells (PER117 cells; CTG) | CK1a: CRBN Ternary Complex NanoBRET Ratio ([1]; 0.111 uM) | CK1a: CRBN Ternary Complex NanoBRET Ratio, Normalized ([1]; 0.111 uM) | CK1a: CRBN Ternary Complex NanoBRET Ratio ([1]; 0.333 uM) | CK1a: CRBN Ternary Complex NanoBRET Ratio, Normalized ([1]; 0.333 uM) | CK1a: CRBN Ternary Complex NanoBRET Ratio ([1]; 1 uM) | CK1a: CRBN Ternary Complex NanoBRET Ratio, Normalized ([1]; 1 uM) | CK1a: CRBN Ternary Complex NanoBRET Ratio ([1]; 3 uM) | CK1a: CRBN Ternary Complex NanoBRET Ratio, Normalized ([1]; 3 uM) | CK1a: CRBN Ternary Complex NanoBRET Ratio ([1]; 10 uM, replicates) | CK1a: CRBN Ternary Complex NanoBRET Ratio, Normalized ([1]; 10 uM, replicates) | Ternary complex formation (NanoBRET signal) ([1]; 2 h treatment)
Cc1cccc(C(=O)Nc2ccc3c(c2)CN(C2CCC(=O)NC2=O)C3=O)c1 (centres unmarked) [SJ0040] | 5 nM | 4.7 nM and 5.3 nM |  |  |  |  |  |  |  |  |  |  |  | 
O=C1CCC(N2Cc3cc(Nc4noc5ccccc45)ccc3C2=O)C(=O)N1 (centres unmarked) [SJ3149] | 0.8 nM | 1.1 nM | sub-nanomolar activity | 3.47 mBU and 2.55 mBU and 2.79 mBU | 23.75 and 17.45 and 19.07 | 4.12 mBU and 3.68 mBU and 3.78 mBU | 28.17 and 25.18 and 25.82 | 4.59 mBU and 4.78 mBU and 4.4 mBU | 31.39 and 32.66 and 30.10 | 4.96 mBU and 4.79 mBU and 5.46 mBU | 33.90 and 32.75 and 37.33 | 5.57 mBU and 5.32 mBU and 5.78 mBU | 38.09 and 36.40 and 39.49 | most robust complex formation
O=C1CCC(N2Cc3c(CNC(=O)c4ccc(F)cc4)cccc3C2=O)C(=O)N1 (centres unmarked) [SJ7095] |  |  |  | 3.3 mBU and 3.11 mBU and 3.22 mBU and 2.76 mBU | 3.03 and 2.85 and 2.95 and 2.53 | 4.47 mBU and 5.14 mBU and 4.06 mBU and 4.1 mBU | 4.10 and 4.71 and 3.72 and 3.76 | 5.33 mBU and 5.06 mBU and 5.38 mBU and 4.31 mBU | 4.89 and 4.64 and 4.93 and 3.95 | 5.47 mBU and 7.05 mBU and 5.71 mBU and 6.74 mBU | 5.01 and 6.46 and 5.23 and 6.18 | 7.23 mBU and 6.62 mBU and 6.74 mBU and 6.49 mBU | 6.63 and 6.07 and 6.18 and 5.95 | 
